In assay [1] the target is T1, human GLP-1R (Homo sapiens, UniProt P43220). In words: GLP-1R HEK293 cell membrane [35S]GTPγS binding assay. The conditions noted are these: HEK293 cell membranes expressing human GLP-1R, [35S]GTPγS binding; read-out: hGLP1R GTPgS Rel EC50 nM (SEM, n). The class given is biochemical. Also noted: expressed in transfected cells; host or cells: HEK293 cells expressing human GLP-1R; membranes. The procedure: The GLP-1 receptor is a G-protein coupled receptor that increases GTP-bound Gas upon ligand induced receptor activation. The potency of peptides to stimulate-GLP-1R induced activation of Gac is determined using preparations of purified membranes from HEK293 cells expressing the human GLP-1R. […] The test peptides are solubilized in DMSO and diluted in reaction buffer containing 5 μg of membrane in 20 mM HEPES pH 7.4, 50 mM NaCl, 5 mM MgCl2, 40 μg/ml saponin, 0.1% BSA, and […] ^35S-labeled GTPTS for 30 minutes at room temperature. Reactions are terminated by addition of 0.2% Nonidet β-40 detergent containing rabbit anti-Gas polyclonal antibody and 0.5 mg of anti-rabbit polyvinyltoluene beads. Mixtures are developed for 30 minutes, centrifuged at 80×g for 10 minutes, and counted for 1 minute/well using a MicroBeta TriLux instrument. Peptide concentration-response curves are fit to a four-parameter logistic model to calculate potency as an EC50.
T1 sequence (P43220 24-463): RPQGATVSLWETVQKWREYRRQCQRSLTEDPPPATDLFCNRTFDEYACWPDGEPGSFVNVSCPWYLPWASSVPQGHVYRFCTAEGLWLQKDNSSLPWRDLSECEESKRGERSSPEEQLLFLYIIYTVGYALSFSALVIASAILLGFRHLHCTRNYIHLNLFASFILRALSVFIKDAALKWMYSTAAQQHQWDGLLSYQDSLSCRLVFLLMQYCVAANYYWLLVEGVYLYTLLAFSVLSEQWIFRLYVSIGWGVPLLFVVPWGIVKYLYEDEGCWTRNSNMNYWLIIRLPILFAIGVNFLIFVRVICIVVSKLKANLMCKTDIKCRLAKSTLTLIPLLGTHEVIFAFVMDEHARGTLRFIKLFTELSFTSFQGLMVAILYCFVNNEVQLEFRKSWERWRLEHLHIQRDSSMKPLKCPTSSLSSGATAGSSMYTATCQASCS

In assay [2] the target is T2, human Gcg receptor (Homo sapiens, UniProt P47871).
T2 construct: expressed in transfected cells; crude membranes
T2 sequence (P47871 26-477): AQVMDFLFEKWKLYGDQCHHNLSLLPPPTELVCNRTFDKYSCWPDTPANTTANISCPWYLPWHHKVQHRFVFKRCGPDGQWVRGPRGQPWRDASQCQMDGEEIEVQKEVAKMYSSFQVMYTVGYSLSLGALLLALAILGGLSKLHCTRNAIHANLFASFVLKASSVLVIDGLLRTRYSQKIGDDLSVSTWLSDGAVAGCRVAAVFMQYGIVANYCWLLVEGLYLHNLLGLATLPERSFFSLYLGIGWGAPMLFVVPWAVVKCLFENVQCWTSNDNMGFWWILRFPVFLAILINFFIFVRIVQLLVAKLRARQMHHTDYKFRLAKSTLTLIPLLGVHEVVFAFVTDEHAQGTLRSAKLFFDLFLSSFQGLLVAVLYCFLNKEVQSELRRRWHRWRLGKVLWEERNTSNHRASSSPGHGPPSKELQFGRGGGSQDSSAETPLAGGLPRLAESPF
In words: [125I]-Glucagon binding (SPA), human Gcg receptor. The conditions noted are these: read-out: hGLcgR Ki, nM (SEM, n). The essentials: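 Crude membranes from cells expressing the receptor, prepared by hypotonic lysis in 50 mM Tris HCl pH 7.5 with protease inhibitors, homogenization and differential centrifugation, were used in a WGA-bead SPA. Binding buffer: 25 mM HEPES pH 7.4, 2.5 mM CaCl2, 1 mM MgCl2, bacitracin, Tween-20.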

Assay [3] has as its target T3, gastric inhibitory peptide receptor (GIPR) (Homo sapiens, UniProt P48546).
T3 sequence (P48546 22-466): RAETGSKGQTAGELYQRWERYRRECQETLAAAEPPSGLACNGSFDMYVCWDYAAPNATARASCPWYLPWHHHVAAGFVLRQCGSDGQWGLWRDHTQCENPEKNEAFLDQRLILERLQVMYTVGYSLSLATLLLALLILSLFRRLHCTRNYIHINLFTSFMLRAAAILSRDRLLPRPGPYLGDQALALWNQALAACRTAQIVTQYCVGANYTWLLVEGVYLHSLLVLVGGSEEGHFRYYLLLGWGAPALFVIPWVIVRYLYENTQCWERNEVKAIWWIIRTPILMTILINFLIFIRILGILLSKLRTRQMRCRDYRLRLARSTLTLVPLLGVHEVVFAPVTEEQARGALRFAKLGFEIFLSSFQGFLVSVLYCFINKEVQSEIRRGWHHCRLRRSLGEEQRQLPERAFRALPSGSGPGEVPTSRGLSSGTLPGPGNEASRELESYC
In words: cAMP pharmacological functional assay in presence of casein, hGIPR. In kind it is cell-based. The conditions noted are these: HEK293 cells expressing hGIPR, 0.1% Casein, geometric mean; read-out: hGIPR cAMP Rel EC50 nM (SEM, n).

Assay [4] addresses human GLP-1 receptor (GLP-1R) (Homo sapiens, UniProt P43220). As to the kind of experiment: cAMP pharmacological functional assay in presence of casein, hGLP-1R. The conditions noted are these: HEK293 cells expressing hGLP-1R, 0.1% Casein, geometric mean; read-out: hGLP1R cAMP Rel EC50 nM (SEM, n). In kind it is cell-based.
Assay [5] deals with T4, human GIP receptor (Homo sapiens, UniProt P48546).
T4 construct: expressed in transfected cells; crude membranes
T4 sequence (P48546 22-466): T3 sequence (P48546 22-466)
As to the kind of experiment: [125I]-GIP binding (SPA), human GIP receptor. The conditions noted are these: read-out: hGIPR Ki, nM (SEM, n).

Assay [6] concerns the target T1, human GLP-1R. In words: [125I]-GLP-1 binding (SPA), human GLP-1 receptor. The arrangement: expressed in transfected cells; crude membranes. The conditions noted are these: read-out: hGLP1R Ki, (nM) (SEM, n). The essentials:
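Ki values are geometric means with SEM over independent replicates on different days, derived from IC50s fitted by four-parameter nonlinear regression. The assay used crude cell membranes in HEPES buffer, pH 7.4, containing CaCl2, MgCl2, bacitracin and TWEEN-20.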

Among the data in patent publication US12252524B2, “GIP/GLP1 co-agonist compounds” (Eli Lilly and Company, priority 2018, dated 2025) are EC50 and Ki values, retold here.

Numbered stars: 1 amine (or outer) side, 2 acyl side, 3 side chain; on linkers, the order of the positions; unused ones are H or OH. Square brackets hold non-standard residues; d marks the D form. Side chains are listed from the residue outwards. Peptide text beside a SMILES is read from it. * marks the point of attachment. C20 diacid = O=C(O)CCCCCCCCCCCCCCCCCCC(=O)*; C18 diacid = O=C(O)CCCCCCCCCCCCCCCCC(=O)*; γGlu = O=C(O)[C@H](CCC(=O)[*:2])N[*:1]; αMeL = CC(C)C[C@](C)(N)C(=O)O; AEEA = NCCOCCOCC(=O)O; Aib = CC(C)(N)C(=O)O

Chain of human GLP-1 receptor (GLP-1R) (P43220 24-463): as the sequence (P43220 24-463) above

Regarding `CC[C@H](C)[C@H](NC(=O)[C@H](CC(C)C)NC(=O)[C@H](Cc1ccc(O)cc1)NC(=O)[C@H](CCC(=O)O)NC(=O)[C@@H](NC(=O)[C@H](Cc1ccccc1)NC(=O)[C@H](C)NC(=O)C(C)(C)NC(=O)[C@H](CCC(N)=O)NC(=O)[C@H](C)NC(=O)[C@H](CCCCNC(=O)COCCOCCNC(=O)COCCOCCNC(=O)CC[C@H](NC(=O)CCCCCCCCCCCCCCCCC(=O)O)C(=O)O)NC(=O)[C@H](CCC(=O)O)NC(=O)[C@H](CC(=O)O)NC(=O)[C@H](CC(C)C)NC(=O)[C@](C)(CC(C)C)NC(=O)[C@@H](NC(=O)[C@H](CO)NC(=O)[C@H](Cc1ccc(O)cc1)NC(=O)[C@H](CC(=O)O)NC(=O)[C@H](CO)NC(=O)[C@@H](NC(=O)[C@H](Cc1ccccc1)NC(=O)[C@@H](NC(=O)CNC(=O)[C@H](CCC(=O)O)NC(=O)C(C)(C)NC(=O)[C@@H](N)Cc1ccc(O)cc1)[C@@H](C)O)[C@@H](C)O)[C@@H](C)CC)[C@@H](C)CC)C(=O)N[C@@H](CCC(=O)O)C(=O)NCC(=O)NCC(=O)N1CCC[C@H]1C(=O)N[C@@H](CO)C(=O)N[C@@H](CO)C(=O)NCC(=O)N[C@@H](C)C(=O)N1CCC[C@H]1C(=O)N1CCC[C@H]1C(=O)N1CCC[C@H]1C(=O)N[C@@H](CO)C(N)=O` [Example 323] (H-Y[Aib]EGTFTSDYSI[αMeL]LDEK([AEEA-AEEA-γGlu-C18 diacid])AQ[Aib]AFIEYLIEGGPSSGAPPPS-NH2), the EC50 in assay [1] came out at 0.79 nM; in assay [3], 0.0251 nM; in assay [4] it was 0.0597 nM. Besides, the results for the inhibitory constant (Ki) in assay [2], in assay [5] and in assay [6] were 300 nM, 0.0516 nM and 1.65 nM, respectively.

In the case of `CC[C@H](C)[C@H](NC(=O)[C@H](CC(C)C)NC(=O)[C@H](Cc1ccc(O)cc1)NC(=O)[C@H](CCC(=O)O)NC(=O)[C@@H](NC(=O)[C@H](Cc1ccccc1)NC(=O)[C@H](C)NC(=O)C(C)(C)NC(=O)[C@H](CCC(N)=O)NC(=O)[C@H](C)NC(=O)[C@H](CCCCNC(=O)COCCOCCNC(=O)COCCOCCNC(=O)CC[C@H](NC(=O)CCCCCCCCCCCCCCCCCCC(=O)O)C(=O)O)NC(=O)[C@H](CCCCN)NC(=O)[C@H](CC(=O)O)NC(=O)[C@H](CC(C)C)NC(=O)[C@H](CC(C)C)NC(=O)[C@@H](NC(=O)[C@H](CO)NC(=O)[C@H](Cc1ccc(O)cc1)NC(=O)[C@H](CC(=O)O)NC(=O)[C@H](CO)NC(=O)[C@@H](NC(=O)[C@H](Cc1ccccc1)NC(=O)[C@@H](NC(=O)CNC(=O)[C@H](CCC(=O)O)NC(=O)C(C)(C)NC(=O)[C@@H](N)Cc1ccc(O)cc1)[C@@H](C)O)[C@@H](C)O)[C@@H](C)CC)[C@@H](C)CC)C(=O)N[C@@H](C)C(=O)NCC(=O)NCC(=O)N1CCC[C@H]1C(=O)N[C@@H](CO)C(=O)N[C@@H](CO)C(=O)NCC(N)=O` [Example 317] (H-Y[Aib]EGTFTSDYSILLDKK([AEEA-AEEA-γGlu-C20 diacid])AQ[Aib]AFIEYLIAGGPSSG-NH2; N-terminus assumed), the EC50 is 0.536 nM in assay [1], 0.0948 nM in assay [3] and 0.172 nM in assay [4]. In addition, the inhibition constant Ki in assay [2] stood at 253 nM; in assay [5], 0.0215 nM; in assay [6], 2.63 nM.

With `CC[C@H](C)[C@H](NC(=O)[C@H](CC(C)C)NC(=O)[C@H](Cc1ccc(O)cc1)NC(=O)[C@H](CCC(=O)O)NC(=O)[C@@H](NC(=O)[C@H](Cc1ccccc1)NC(=O)[C@H](C)NC(=O)C(C)(C)NC(=O)[C@H](CCC(N)=O)NC(=O)[C@H](C)NC(=O)[C@H](CCCCNC(=O)COCCOCCNC(=O)COCCOCCNC(=O)CC[C@H](NC(=O)CCCCCCCCCCCCCCCCC(=O)O)C(=O)O)NC(=O)[C@H](CCCCN)NC(=O)[C@H](CC(=O)O)NC(=O)[C@H](CC(C)C)NC(=O)[C@H](CC(C)C)NC(=O)[C@@H](NC(=O)[C@H](CO)NC(=O)[C@H](Cc1ccc(O)cc1)NC(=O)[C@H](CC(=O)O)NC(=O)[C@H](CO)NC(=O)[C@@H](NC(=O)[C@H](Cc1ccccc1)NC(=O)[C@@H](NC(=O)CNC(=O)[C@H](CCC(=O)O)NC(=O)C(C)(C)NC(=O)[C@@H](N)Cc1ccc(O)cc1)[C@@H](C)O)[C@@H](C)O)[C@@H](C)CC)C(C)C)C(=O)N[C@@H](CCC(=O)O)C(=O)NCC(=O)NCC(=O)N1CCC[C@H]1C(=O)N[C@@H](CO)C(=O)N[C@@H](CO)C(=O)NCC(N)=O` [Example 298] (H-Y[Aib]EGTFTSDYSILLDKK([AEEA-AEEA-γGlu-C18 diacid])AQ[Aib]AFVEYLIEGGPSSG-NH2; N-terminus assumed), the results for the EC50 in assay [1], in assay [3] and in assay [4] were 1.03 nM, 0.043 nM and 0.0957 nM, respectively. Also, the values for the inhibition constant Ki in assay [2], in assay [5] and in assay [6] were greater than 1370 nM, 0.0578 nM and 3.03 nM, respectively.

As for `CC[C@H](C)[C@H](NC(=O)[C@H](CC(C)C)NC(=O)[C@H](Cc1ccc(O)cc1)NC(=O)[C@H](CCC(=O)O)NC(=O)[C@@H](NC(=O)[C@H](Cc1ccccc1)NC(=O)[C@H](C)NC(=O)C(C)(C)NC(=O)[C@H](CCC(N)=O)NC(=O)[C@H](C)NC(=O)[C@H](CCCCNC(=O)COCCOCCNC(=O)COCCOCCNC(=O)CC[C@H](NC(=O)CCCCCCCCCCCCCCCCCCC(=O)O)C(=O)O)NC(=O)[C@H](CCCCN)NC(=O)[C@H](CC(=O)O)NC(=O)[C@H](CC(C)C)NC(=O)[C@H](CC(C)C)NC(=O)[C@@H](NC(=O)[C@H](CO)NC(=O)[C@H](Cc1ccc(O)cc1)NC(=O)[C@H](CC(=O)O)NC(=O)[C@H](CO)NC(=O)[C@@H](NC(=O)[C@H](Cc1ccccc1)NC(=O)[C@@H](NC(=O)CNC(=O)[C@H](CCC(=O)O)NC(=O)C(C)(C)NC(=O)[C@@H](N)Cc1ccccc1)[C@@H](C)O)[C@@H](C)O)[C@@H](C)CC)[C@@H](C)CC)C(=O)N[C@@H](CCC(=O)O)C(=O)NCC(=O)NCC(=O)N1CCC[C@H]1C(=O)N[C@@H](CO)C(=O)N[C@@H](CO)C(=O)NCC(=O)N[C@@H](C)C(=O)N1CCC[C@H]1C(=O)N1CCC[C@H]1C(=O)N1CCC[C@H]1C(=O)N[C@@H](CO)C(N)=O` [Example 326] (H-F[Aib]EGTFTSDYSILLDKK([AEEA-AEEA-γGlu-C20 diacid])AQ[Aib]AFIEYLIEGGPSSGAPPPS-NH2), the EC50 in assay [1] turned out to be 0.663 nM; in assay [3] it was 0.0754 nM; in assay [4] it was 0.0369 nM. The Ki in assay [2] came out at 207 nM; in assay [5] it was 0.251 nM; in assay [6] it was 2.92 nM.
